# Measured values published in PubChem BioAssay (NCI).
#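 Cultured in 96-well plates, cells were exposed to test compound for 48 hours across five concentrations. TGI: concentration producing complete growth inhibition.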
# How the values were obtained:
# Assay in all cases: inhibition of tumour cell growth, NCI panel, 48 h
# [1] = tested on: UACC-62 melanoma
# [2] = tested on: SK-MEL-28 melanoma
# [3] = tested on: NCI/ADR-RES ovarian
# [4] = tested on: HOP-62 NSCLC
# [5] = tested on: T-47D breast
# [6] = tested on: OVCAR-3 ovarian
# [7] = tested on: NCI-H522 lung
# [8] = tested on: HOP-92 NSCLC
# [9] = tested on: SR leukemia
# [10] = tested on: HL-60(TB) leukemia
# [11] = tested on: MDA-MB-435
# [12] = tested on: CAKI-1 renal
# [13] = tested on: HS 578T breast
# [14] = tested on: 786-0 renal
# [15] = tested on: ACHN renal
# [16] = tested on: LOX IMVI melanoma
# [17] = tested on: DU-145 prostate
# [18] = tested on: OVCAR-4 ovarian
# [19] = tested on: SK-MEL-5 melanoma
# [20] = tested on: SK-MEL-2 melanoma
# [21] = tested on: BT-549 breast
# [22] = tested on: OVCAR-5 ovarian
# [23] = tested on: SK-OV-3 ovarian
# [24] = tested on: HCC-2998 colon
# [25] = tested on: OVCAR-8 ovarian
# [26] = tested on: A498 renal
# [27] = tested on: HCT-116 colon
# [28] = tested on: SF-295 CNS
# [29] = tested on: COLO 205 colon
# [30] = tested on: NCI-H23 lung
# [31] = tested on: MDA-MB-231 breast
# [32] = tested on: SW-620 colon
# [33] = tested on: MCF7 breast
# [34] = tested on: HCT-15 colon
# [35] = tested on: UO-31 renal
# [36] = tested on: RPMI-8226 leukemia
# [37] = tested on: A549 NSCLC
# [38] = tested on: SNB-75 CNS
# [39] = tested on: SNB-19 CNS
# [40] = tested on: U251 CNS
# [41] = tested on: SF-539 CNS
# [42] = tested on: SN12C renal
# [43] = tested on: TK-10 renal
# [44] = tested on: UACC-257 melanoma
# [45] = tested on: PC-3 prostate
# [46] = tested on: IGROV1 ovarian
# [47] = tested on: RXF 393 renal
# [48] = tested on: NCI-H226 lung
# [49] = tested on: KM12 colon
# [50] = tested on: M14 melanoma
# [51] = tested on: HT29 colon
# [52] = tested on: EKVX NSCLC
# [53] = tested on: MDA-N
# [54] = tested on: MALME-3M melanoma
# [55] = tested on: NCI-H460 lung
# [56] = tested on: CCRF-CEM leukemia
# [57] = tested on: K-562 leukemia
# [58] = tested on: SF-268 CNS
smiles,measurement,setting,value
O=C(N/N=C\c1c(O)ccc2ccccc12)c1ccncc1,TGI,[1],2.04 µM
same,TGI,[2],> 25 µM
same,TGI,[3],> 8.64 µM
same,TGI,[4],> 25 µM
same,TGI,[5],> 25 µM
same,TGI,[6],> 25 µM
same,TGI,[7],> 7.49 µM
same,TGI,[8],18.8 µM
same,TGI,[9],> 25 µM
same,TGI,[10],5.91 µM
same,TGI,[11],> 25 µM
same,TGI,[12],> 4.94 µM
same,TGI,[13],> 25 µM
same,TGI,[14],> 25 µM
same,TGI,[15],> 13.5 µM
same,TGI,[16],> 25 µM
same,TGI,[17],> 25 µM
same,TGI,[18],> 22.2 µM
same,TGI,[19],> 9.41 µM
same,TGI,[20],> 9.41 µM
same,TGI,[21],> 8.19 µM
same,TGI,[22],> 25 µM
same,TGI,[23],24.3 µM
same,TGI,[24],> 25 µM
same,TGI,[25],> 25 µM
same,TGI,[26],> 15.6 µM
same,TGI,[27],> 25 µM
same,TGI,[28],> 25 µM
same,TGI,[29],> 14.2 µM
same,TGI,[30],> 25 µM
same,TGI,[31],> 5.71 µM
same,TGI,[32],> 25 µM
same,TGI,[33],> 7.75 µM
same,TGI,[34],> 25 µM
same,TGI,[35],3.95 µM
same,TGI,[36],> 5.06 µM
same,TGI,[37],> 25 µM
same,TGI,[38],> 25 µM
same,TGI,[39],> 25 µM
same,TGI,[40],> 25 µM
same,TGI,[41],8.2 µM
same,TGI,[42],> 5.5 µM
same,TGI,[43],> 25 µM
same,TGI,[44],> 25 µM
same,TGI,[45],> 25 µM
same,TGI,[46],1.84 µM
same,TGI,[47],> 8.59 µM
same,TGI,[48],2.67 µM
same,TGI,[49],> 25 µM
same,TGI,[50],> 19.4 µM
same,TGI,[51],> 25 µM
same,TGI,[52],> 25 µM
same,TGI,[53],> 25 µM
same,TGI,[54],> 7.77 µM
same,TGI,[55],> 6.82 µM
Cc1cc(CN2CCCCC2)c(O)c(CN2CCCCC2)c1,TGI,[1],> 100 µM
same,TGI,[2],> 100 µM
same,TGI,[3],> 100 µM
same,TGI,[56],> 100 µM
same,TGI,[4],> 100 µM
same,TGI,[5],> 100 µM
same,TGI,[6],> 100 µM
same,TGI,[7],> 100 µM
same,TGI,[8],> 100 µM
same,TGI,[9],> 100 µM
same,TGI,[10],> 100 µM
same,TGI,[11],> 100 µM
same,TGI,[12],> 100 µM
same,TGI,[13],> 100 µM
same,TGI,[14],> 100 µM
same,TGI,[15],> 100 µM
same,TGI,[16],> 100 µM
same,TGI,[17],> 100 µM
same,TGI,[18],> 100 µM
same,TGI,[19],> 100 µM
same,TGI,[20],> 100 µM
same,TGI,[21],> 100 µM
same,TGI,[22],> 100 µM
same,TGI,[23],> 100 µM
same,TGI,[24],> 100 µM
same,TGI,[25],> 100 µM
same,TGI,[26],> 100 µM
same,TGI,[27],> 100 µM
same,TGI,[28],> 100 µM
same,TGI,[29],> 100 µM
same,TGI,[30],> 100 µM
same,TGI,[31],> 100 µM
same,TGI,[32],> 100 µM
same,TGI,[33],> 100 µM
same,TGI,[34],> 100 µM
same,TGI,[35],> 100 µM
same,TGI,[36],> 100 µM
same,TGI,[37],> 100 µM
same,TGI,[38],> 100 µM
same,TGI,[39],> 100 µM
same,TGI,[40],> 100 µM
same,TGI,[42],> 100 µM
same,TGI,[43],> 100 µM
same,TGI,[44],> 100 µM
same,TGI,[45],> 100 µM
same,TGI,[46],> 100 µM
same,TGI,[47],> 100 µM
same,TGI,[57],> 100 µM
same,TGI,[48],> 100 µM
same,TGI,[49],> 100 µM
same,TGI,[50],> 100 µM
same,TGI,[51],> 100 µM
same,TGI,[58],> 100 µM
same,TGI,[52],> 100 µM
same,TGI,[53],> 100 µM
same,TGI,[54],> 100 µM
same,TGI,[55],> 100 µM
